The record followed here is ChEMBL document CHEMBL1201862, “PubChem BioAssay data set” (2004).

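Growth conditions: 96-well plates. Treatment: test compound, 48 hours, 5 concentrations. Analysis: linear interpolation between bracketing concentrations; unreached endpoints set to highest concentration. GI50: concentration for 50% inhibition of growth.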 Calls of active or inactive are those of the source. No stated cut-off is given here; in the data, active = GI50 up to about 1.1 µM and inactive = higher.

Some test systems named below: A498; A549; ACHN; HOP-62; KM12; LOX IMVI; MDA-MB-435; Malme-3M; NCI-H23; NCI-H460; OVCAR-5; RXF 393; SK-OV-3; SNB-75; TK-10; UACC-257; UACC-62; HCT-15; SR; BT-549.
Holding throughout (experiment): NCI-60 cell line screen, 48 h

As to `Oc1ccc(Cl)cc1CN1CCN(Cc2cc(Cl)ccc2O)C1`, the GI50 is 16 µM (inactive) in the assay on A498; 1.75 µM (inactive) in the assay on A549; 0.465 µM (active) with ACHN; 0.617 µM (active) in the assay with HOP-62; 1.08 µM (active) in the assay on KM12; 0.489 µM (active) with LOX IMVI. Further, the GI50 is 1.33 µM (inactive) in the assay on MDA-MB-435; 2.17 µM (inactive) in the assay with Malme-3M; 1.19 µM (inactive) in the assay on NCI-H23; 0.218 µM (active) in the assay with NCI-H460; 5.09 µM (inactive) in the assay on OVCAR-5; 0.895 µM (active) in the assay with RXF 393. For the same compound, the GI50 in the assay on SK-OV-3 was 2.3 µM (inactive); in the assay on SNB-75 it was 1.52 µM (inactive); in the assay on TK-10, 1.55 µM (inactive); in the assay with UACC-257, 1.86 µM (inactive); in the assay on UACC-62 it was 1.85 µM (inactive).
Consider `CCOC(=O)CC1c2ccc(O)cc2OC(=O)C1c1ccc([N+](=O)[O-])cc1` (centres undefined), for which the GI50 with A498 was 25.6 µM (inactive); with A549, 27.5 µM (inactive); in the assay with ACHN, 25.2 µM (inactive); in the assay on HCT-15, 30.4 µM; in the assay with HOP-62 it was 20.2 µM (inactive); with KM12, 34.3 µM (inactive). Besides, the GI50 is 40.7 µM (inactive) with LOX IMVI; 25 µM (inactive) in the assay with MDA-MB-435; 27.4 µM (inactive) with Malme-3M; 27.7 µM (inactive) in the assay with NCI-H23; 31.3 µM (inactive) with NCI-H460; 58.6 µM (inactive) in the assay with OVCAR-5. Also, the GI50 in the assay with RXF 393 was 16.9 µM (inactive); with SK-OV-3 it was 33.3 µM (inactive); with SNB-75, 23.9 µM (inactive); in the assay with SR, 31.8 µM (inactive); in the assay with TK-10, 30.3 µM (inactive); with UACC-257, 28.8 µM (inactive). The GI50 in the assay on UACC-62 is 37.2 µM (inactive).
As for `O=C(/C=C/c1ccccc1)/C=N/N1C(=S)N(c2ccccc2)C(=N\c2ccccc2)/C1=N/c1ccccc1`, the GI50 in the assay with A549 is > 100 µM (inactive); in the assay with ACHN, > 100 µM (inactive); in the assay with BT-549, > 100 µM (inactive); in the assay with HCT-15, > 100 µM; in the assay with HOP-62, > 100 µM (inactive); with KM12, > 100 µM (inactive). For the same compound, the GI50 is > 100 µM (inactive) in the assay on Malme-3M; > 100 µM (inactive) in the assay on NCI-H23; 58.7 µM (inactive) in the assay with NCI-H460; > 100 µM (inactive) with OVCAR-5; 38.8 µM (inactive) in the assay on RXF 393; > 100 µM (inactive) with SK-OV-3. For the same compound, the GI50 in the assay on SR, with TK-10, in the assay with UACC-257 and with UACC-62 was > 100 µM (inactive) throughout.
Turning to `O=C(CC(C(=O)c1ccc(F)cc1)c1ccsc1)c1cccs1` (centres undefined), the GI50 with A498 is > 100 µM (inactive); in the assay with A549, 74.8 µM (inactive); in the assay on ACHN, > 100 µM (inactive); in the assay with HCT-15, 86.9 µM; in the assay with HOP-62 it was > 100 µM (inactive); in the assay on KM12, 44.8 µM (inactive). In addition, the GI50 is > 100 µM (inactive) in the assay on MDA-MB-435; 36 µM (inactive) in the assay with Malme-3M; 32.7 µM (inactive) with NCI-H23; 69.7 µM (inactive) with NCI-H460; > 100 µM (inactive) in the assay with OVCAR-5; > 100 µM (inactive) in the assay on SK-OV-3. Also, the GI50 in the assay with SNB-75 is 94 µM (inactive); in the assay on SR, 39.4 µM (inactive); in the assay on TK-10 it was > 100 µM (inactive); in the assay with UACC-257, 70.3 µM (inactive); in the assay with UACC-62, > 100 µM (inactive).
